Measured values taken from patent US9790496B2, “Microrna compounds and methods for modulating MIR-21 activity” (Regulus Therapeutics, Inc., priority 2011, dated 2017).

Key:
[1] = In vivo stability: compound in kidney tissue after administration to mice; conditions: kidney tissue after administration to mice; for in vivo (kidney) N-1(%): compound lacking one terminal nucleoside; for in vivo (kidney) N(%): full-length compound
[2] = Ex vivo liver homogenate stability assay (HPLC-TOF MS); conditions: 24 hours, 37° C.; for ex vivo (liver) N %↓: 5 μM oligonucleotide in liver homogenate (50 mg tissue per ml), decrease of full-length compound; for ex vivo (liver) % N-1 / ex vivo (liver) % Endo: 5 μM oligonucleotide in liver homogenate; for ex vivo (liver) % N-1: compound lacking one terminal nucleoside; for ex vivo (liver) % Endo: endonuclease products
[3] = system: collagen 1A1 and collagen 3A1 expression in kidney, unilateral ureteral obstruction (UUO) model; assay: UUO model of kidney fibrosis: kidney collagen 1A1 and collagen 3A1 expression by real-time PCR; format: in vivo, mice; conditions: UUO; 20 mg/kg at days -5, -3, +3; kidney at day 10
Protocol: Unilateral ureteral obstruction (UUO) is a well-established experimental model of renal injury leading to interstitial fibrosis, and thus is used as an experimental model that is reflective of human kidney disease. UUO is induced by surgically ligating a single ureter. As fibrosis is characterized by an increase in collagen, the presence and extent of kidney fibrosis may be determined by measuring collagen content. Both collagen 1A1 (Col 1A1) and collagen 3A1 (Col 3A1) are measured to assess collagen content. Kidney fibrosis may be visualized by staining tissue samples with picro-sirius red to detect increases in collagen content. Kidney fibrosis may also be observed by measuring the amount of hydroxyproline, which is a major component of collagen, in a sample.
The cEt-containing anti-miR-21 compounds found to be active in the luciferase assay were tested in the UUO model of kidney fibrosis. 25919 comprising 2′-MOE and 2′-fluoro modifications is known to inhibit miR-21 activity in vivo and was included as a positive control. Groups of 8 animals each were treated as follows: UUO only, UUO with PBS, or UUO with anti-miR-21 compound. Relative to the day of the UUO procedure, PBS or anti-miR-21 compound was administered at days −3, −1, and +5. Anti-miR-21 compounds were administered at a dose of 20 mg/kg. As the anti-miR compounds were administered prior to the UUO procedure, this dosing regimen is considered a prophylactic treatment. At day 11, animals were sacrificed and kidney was isolated for measurement of collagen expression. Collagen expression was measured by real-time PCR and normalized first to GAPDH and then to the sham control animals. […]

| Sequence | in vivo (kidney) N-1(%) [1] | in vivo (kidney) N(%) [1] | ex vivo (liver) N %↓ [2] | ex vivo (liver) % N-1 [2] | ex vivo (liver) % Endo [2] | reduction of collagen 1A1 expression (in words, FIG. 2A) [3] | reduction of collagen 3A1 expression (in words, FIG. 2B) [3] |
| --- | --- | --- | --- | --- | --- | --- | --- |
| AECSATCSAGTCSTGAUSAAGCSUSAS (ACATCAGTCTGATAAGCTA; modified nucleosides coded in name, code key not given here) [Compound 25221] | 4 ± 1% | 76 ± 4% | 3% | 0% | 3% | reduced collagen 1A1 and collagen 3A1 expression by a statistically significant amount | reduced collagen 1A1 and collagen 3A1 expression by a statistically significant amount |
| AECSATCSASGTCSUSGAUSASAGCSUSAE (ACATCAGTCTGATAAGCTA; modified nucleosides coded in name, code key not given here) [Compound 25220] | 16 ± 6% | 67 ± 16% | 3% | 0% | 3% | reduced collagen 1A1 and collagen 3A1 expression by a statistically significant amount | reduced collagen 1A1 and collagen 3A1 expression by a statistically significant amount |
